Assay [1] has as its system idiopathic Parkinson's disease. Kind of assay: Patient with idiopathic Parkinson's disease, Examples XVI and XXIII. In kind it is in vivo, human patient. Here is the method: A person presenting with symptoms of tremor, stiff hands, and funny ("cogwheel") gait is diagnosed by clinical examination as having idiopathic Parkinson's disease. Dosage of levodopa/carbidopa of 400/100 mg/day are built up to.

The subject of the next assay is L-amino acid oxidase. In kind it is biochemical, snake venom. The settings on record: substrate of L-amino acid oxidase, pH 7.5, 37° C. Here is the method: Km and Vmax were determined by plotting 1/rate vs. 1/[substrate] to give a line which intersects the Y-axis at 1/Vmax and intersects the X-axis at -1/Km. The reaction mixtures utilized contained in a final volume of 1.0 ml, the following: 100 mM glycylglycine buffer, pH 7.5, 0.3 mM NADH, 2 mM α-ketoglutarate, 0.5 mM ADP, 20 I.U. glutamate dehydrogenase (Sigma Chemicals, St. Louis, Mo.), and L-amino acid substrate or melphalan at concentrations ranging from 0.1 to 16 mM. The temperature was 37° C. In this system L-amino acid oxidase converted L-amino acid or melphalan to the corresponding α-keto acid and ammonia; ammonia then reacted stoichiometrically with α-ketoglutarate and NADH in a reaction catalyzed by glutamate dehydrogenase to give […] and glutamate. The oxidation of NADH to NAD^+ is accompanied by a decrease in OD340, which was monitored and used to determine the amount of ammonia made available for reaction (1 mM NADH converted to NAD^+ causes a ΔOD340 of 6.2 in the 1 cm cuvettes used).

The subject of assay [2] is medulloblastoma brain tumor. The experiment in a line: Patient with medulloblastoma brain tumor, Example XVIII. In kind it is in vivo, human patient. The note with it: LOX 35 units/ml of plasma i.v., 12 hours later L-DON 0.3 mg/kg i.v. The procedure: A patient presents with symptoms of headaches, vomiting and ataxic gait and is diagnosed by magnetic resonance imaging as having medulloblastoma brain tumor. Daily treatment consists of administration of 35 units/ml of plasma of L-amino acid oxidase intravenously followed in 12 hours by administration of 0.3 mg/kg of L-DON intravenously.

For assay [3], the system named is pineoblastoma brain tumor. The experiment in a line: Patient with pineoblastoma brain tumor, Example XVII. In kind it is in vivo, human patient. Here is the method: A person presents with symptoms of headaches, inability to look upward and vomiting and is diagnosed by magnetic resonance imaging as having pineoblastoma brain tumor. Daily treatment consists of administration of 35 units/ml of plasma of L-amino acid oxidase intravenously followed at 12 hours by intravenous administration of 0.3 mg/kg of L-DON.
When L-buthionine-S-sulfoximine is administered orally 3 hours before each administration of L-DON, the dosage of L-DON can be reduced to 0.1 mg/kg with the same results.

The next assay relates to choriocarcinoma. Kind of assay: Patient with choriocarcinoma, Example XXII. Format: in vivo, human patient. The settings on record: LOX 35 units/ml of plasma i.v., 5 hours later L-alanosine 1000 mg/m^2 i.v. The procedure: A patient presents with symptoms of headaches, vomiting and double vision and is diagnosed by magnetic resonance imaging as having choriocarcinoma. Daily treatments consist of 35 units/ml of plasma of L-amino acid oxidase intravenously followed in 5 hours by administration of 1000 mg/m^2 of L-alanosine intravenously.

Assay [4] deals with supratentorial high grade glioma brain tumor. The experiment in a line: Patient with supratentorial high grade glioma, radiation therapy, Example XXIV. Format: in vivo, human patient. The settings on record: LOX 35 units/ml of plasma i.v., 3 hours later oral L-buthionine-S-sulfoximine, 5 days, then 5400 cGy. Here is the method:
A patient is diagnosed by magnetic resonance imaging as having supratentorial high grade glioma brain tumor. Daily treatment consists of 35 units/ml of plasma of L-amino acid oxidase administered intravenously followed in 3 hours by administration orally of L-buthionine-S-sulfoximine. After 5 days, radiation therapy is implemented using a linear accelerator at a total dose of 5400 cGy at a rate of 180 cGY/day in 30 fractions over 30 days. Survival 10% longer than the average survival in the case of radiation therapy of glioma is noted.

The next assay concerns germinoma. The experiment in a line: Patient with germinoma, Example XX. Format: in vivo, human patient. The settings on record: LOX 35 units/ml of plasma i.v., 5 hours later acivicin 30 μg/kg i.v. The procedure:
A patient presents with symptoms of headaches, vomiting and double vision and is diagnosed by magnetic resonance imaging as having a germinoma. Daily treatment consists of 35 units/ml of plasma of L-amino acid oxidase intravenously followed in 5 hours by administration of 30 μg/kg of acivicin intravenously.

A further assay concerns glioblastoma multiforme. The experiment in a line: Patient with glioblastoma multiforme, Example XIX. In kind it is in vivo, human patient. The settings on record: LOX 35 units/ml of plasma i.v., 10 hours later acivicin 30 mg/kg i.v. Here is the method:
A patient presents with symptoms of headaches, seizures and left sided weakness and is diagnosed by magnetic resonance imaging as having glioblastoma multiforme. Daily treatment consists of administration of 35 units/ml of plasma of L-amino acid oxidase intravenously followed in 10 hours by administration of 30 mg/kg of acivicin intravenously.

In another assay the test system is anaplastic astrocytoma. The experiment in a line: Patient with anaplastic astrocytoma, Example XXI. Format: in vivo, human patient. The settings on record: LOX 35 units/ml of plasma i.v., 5 hours later azaserine 10 μg/kg i.v. Here is the method: A patient presents with symptoms of headaches, seizures and vomiting and is diagnosed by magnetic resonance imaging as having anaplastic astrocytoma. Daily treatments consist of 35 units/ml of plasma of L-amino acid oxidase intravenously followed in 5 hours by administration of 10 μg/kg of azaserine intravenously.

`N[C@@H](Cc1cc(CP(=O)(O)O)cc(-c2cccc3ccccc23)c1)C(=O)O` [5-(1-naphthyl)-3-(phosphonomethyl) phenylalanine] returned a Tremor suppression lasting in assay [1] (8 mg/kg orally 12 hours after LOX 25 units/ml of plasma i.v.) of 12 h.
As to `C[C@H](N)C(=O)O` [L-Alanine], the Vmax in the assay with L-amino acid oxidase turned out to be 0 µmol/min/mg.
With `[N-]=[N+]=CC(=O)CC[C@H](N)C(=O)O` [L-DON, 6-diazo-5-oxo-L-norleucine], the “symptoms after 7 days of treatment” value in assay [2] is listed as “amelioration of symptoms”. In addition, the “dosage of L-DON giving the same results” value in assay [3] (L-buthionine-S-sulfoximine orally 3 hours before each L-DON) is given as 0.1 mg/kg. For the same molecule, the “amelioration of symptoms after 7 days” value in assay [3] (LOX 35 units/ml of plasma i.v., 12 hours later L-DON 0.3 mg/kg i.v., daily) was “ability to look upward and less vomiting”.
Turning to `CC[C@H](C)[C@H](N)C(=O)O` [L-Isoleucine], in the assay with L-amino acid oxidase, the Km was found to be 2050 µM and the maximal velocity (Vmax) came to 33 µmol/min/mg.
In the same order, the values of `CC(C)C[C@H](N)C(=O)O` [L-Leucine] are 600 µM and 100 µmol/min/mg.
Take `CSCC[C@H](N)C(=O)O` [L-Methionine]: in the assay with L-amino acid oxidase, the Michaelis constant (Km) is 470 µM and the Vmax amounted to 70 µmol/min/mg.
Turning to `N[C@@H](Cc1ccccc1)C(=O)O` [L-Phenylalanine], in the assay on L-amino acid oxidase, the Km came to 130 µM and the maximum rate (Vmax) was found to be 33 µmol/min/mg.
As for `N[C@@H](Cc1c[nH]c2ccccc12)C(=O)O` [L-Tryptophan], in the assay on L-amino acid oxidase, the Km was found to be 220 µM and the Vmax was determined as 43 µmol/min/mg.
In the same order, the values of `N[C@@H](Cc1ccc(O)cc1)C(=O)O` [L-Tyrosine] are 130 µM and 37 µmol/min/mg.
In the same order, the values of `CC(C)[C@H](N)C(=O)O` [L-Valine] are 19000 µM and 13 µmol/min/mg.
Consider `N[C@@H](CN(O)N=O)C(=O)O` [L-alanosine], for which the “symptoms after 7 days of treatment” value in the assay on choriocarcinoma is recorded as “amelioration of symptoms”.
As to `CCCC[S@](=N)(=O)CC[C@H](N)C(=O)O` [L-buthionine-S-sulfoximine], the “Survival longer than the average survival with radiation therapy of glioma” value in assay [4] is 10%.
With `N[C@H](C(=O)O)[C@@H]1CC(Cl)=NO1` [acivicin, L-[αS,5S]-α-amino-3-chloro-4,5-dihydro-5-isoxazoleacetic acid], the “symptoms after 7 days of treatment” value with germinoma and with glioblastoma multiforme was “amelioration of symptoms” throughout.
Turning to `[N-]=[N+]=CC(=O)OC[C@H](N)C(=O)O` [azaserine, O-diazoacetyl-L-serine], the “symptoms after 7 days of treatment” value in the assay with anaplastic astrocytoma is recorded as “amelioration of symptoms”.
Consider levodopa/carbidopa, for which the “symptoms of Parkinson's disease” value in [1] (levodopa/carbidopa 400/100 mg/day, LOX 25 units/ml of plasma i.v. 15 hours before) is “Lessening of symptoms”.

Values taken from patent US5695751A, “Enhancing delivery of large neutral amino acid drugs” (Cornell Research Foundation, Inc., priority 1995, dated 1997).
